Measured values as given in patent publication US11504383B2, “Crystalline forms of a Ryanodine receptor modulator and uses thereof” (ARMGO Pharma, Inc., priority 2021, dated 2022).
Entries after “also recorded” stand apart in the source; their conditions may differ.

Columns and labels:
Format in all cases: physicochemical
[1] = Dynamic vapor sorption (hygroscopicity); conditions: DVS, 25° C., 0-90% relative humidity
Protocol: Dynamic vapor sorption (DVS) analysis was performed by measuring mass variation of the crystalline form of 4-[(7-methoxy-2,3-dihydro-1,4-benzothiazepin-4(5H)yl)methyl]benzoic acid hemifumarate as a function of relative humidity using a DVS intrinsic instrument. A 5 mg to 10 mg of a sample of a crystalline form of 4-[(7-methoxy-2,3-dihydro-1,4-benzothiazepin-4(5H)yl)methyl]benzoic acid, hemifumarate was placed into a sample pan of a DVS intrinsic instrument at 25° C. under controlled humidity. The mass variation was recorded as a function of relative humidity.
Measurement of DVS comprised: (a) equilibrating a sample of the crystalline form at 25° C. and 50% relative humidity in a temperature-controlled and humidity controlled chamber until mass variation is less than 0.002% per minute for 6 hours; (b) increasing the relative humidity from 50% to 90% at a rate of 10% per hour; (c) equilibrating the sample at 90% relative humidity until mass variation of less than 0.002% per minute for 6 hours is observed; (d) decreasing the relative humidity from 90% to 0% at a rate of 10% per hour; (e) equilibrating the sample at 0% relative humidity until mass variation of less than 0.002% per minute for 6 hours is observed; and (f) increasing the relative humidity from 0% to 50% at a rate of 10% per hour.

[2] = Competitive slurry experiments mixing Form 1 and Form 2 in various solvents; conditions: competitive slurry experiments at 15° C. and 40° C.
Protocol: Competitive slurry experiments were performed at 15° C. (Table 5) or 40° C. (Table 6) by mixing Form 1 and Form 2 in various solvents in acetonitrile/water, acetone/water and methanol/water mixtures. […] (Table 5) or 40° C. (Table 6).

[3] = Stability of Form 2 in an airtight glass bottle for up to 24 months under various storage conditions; set-up: key to Appearance: A1: White or almost white powder; key to Identification: I1: Spectrum of test sample identical to spectrum of reference sample; I3: Spectrum of test sample identical to spectrum of reference sample stored at −18° C
Protocol: Stability of 4-[(7-methoxy-2,3-dihydro-1,4-benzothiazepin-4(5H)yl)methyl]benzoic acid hemifumarate Form 2 was evaluated for up to 24 months under various conditions.

Relative stability of the forms [2]: more stable than Form 1
Appearance ([3]; 25° C./60% RH, 1 Y): A1
Assay of Drug substance (LC) ([3]; 25° C./60% RH, 1 Y): 99.8%
Identification ([3]; 25° C./60% RH, 1 Y): I3
Related substances content (LC) Sum of impurities ([3]; 25° C./60% RH, 1 Y): ≤0.05%
Water content ([3]; 25° C./60% RH, 1 Y): <0.1%
Appearance ([3]; 25° C./60% RH, 2 Y): A1
Assay by potentiometry ([3]; 25° C./60% RH, 2 Y): 99.6%
Assay of Drug substance (LC) ([3]; 25° C./60% RH, 2 Y): 99.5%
Identification ([3]; 25° C./60% RH, 2 Y): I3
Related substances content (LC) Sum of impurities ([3]; 25° C./60% RH, 2 Y): ≤0.05%
Water content ([3]; 25° C./60% RH, 2 Y): <0.1%
Appearance ([3]; 25° C./60% RH, 3 M): A1
Assay by potentiometry ([3]; 25° C./60% RH, 3 M): 100.0%
Assay of Drug substance (LC) ([3]; 25° C./60% RH, 3 M): 99.6%
Identification ([3]; 25° C./60% RH, 3 M): I3
Related substances content (LC) Sum of impurities ([3]; 25° C./60% RH, 3 M): ≤0.05%
Water content ([3]; 25° C./60% RH, 3 M): 0.1%
Appearance ([3]; 25° C./60% RH, 6 M): A1
Assay by potentiometry ([3]; 25° C./60% RH, 6 M): 102.1%
Assay of Drug substance (LC) ([3]; 25° C./60% RH, 6 M): 99.7%
Identification ([3]; 25° C./60% RH, 6 M): I3
Related substances content (LC) Sum of impurities ([3]; 25° C./60% RH, 6 M): ≤0.05%
Water content ([3]; 25° C./60% RH, 6 M): 0.1%
Appearance ([3]; 25° C./60% RH, 6 W): A1
Assay by potentiometry ([3]; 25° C./60% RH, 6 W): 99.7%
Assay of Drug substance (LC) ([3]; 25° C./60% RH, 6 W): 102.5%
Identification ([3]; 25° C./60% RH, 6 W): I3
Related substances content (LC) Sum of impurities ([3]; 25° C./60% RH, 6 W): ≤0.05%
Water content ([3]; 25° C./60% RH, 6 W): <0.1%
Appearance ([3]; 25° C./60% RH, 9 M): A1
Assay by potentiometry ([3]; 25° C./60% RH, 9 M): 99.1%
Assay of Drug substance (LC) ([3]; 25° C./60% RH, 9 M): 100.6%
Identification ([3]; 25° C./60% RH, 9 M): I3
Related substances content (LC) Sum of impurities ([3]; 25° C./60% RH, 9 M): ≤0.05%
Water content ([3]; 25° C./60% RH, 9 M): <0.1%
Appearance ([3]; 25° C./60% RH, 18 M): A1
Assay by potentiometry ([3]; 25° C./60% RH, 18 M): 99.8%
Assay of Drug substance (LC) ([3]; 25° C./60% RH, 18 M): 100.9%
Identification ([3]; 25° C./60% RH, 18 M): I3
Related substances content (LC) Sum of impurities ([3]; 25° C./60% RH, 18 M): ≤0.05%
Water content ([3]; 25° C./60% RH, 18 M): 0.1%
Appearance ([3]; 25° C./60% RH, T0): A1
Assay by potentiometry ([3]; 25° C./60% RH, T0): 99.9%
Assay of Drug substance (LC) ([3]; 25° C./60% RH, T0): 99.7%
Identification ([3]; 25° C./60% RH, T0): I1
Related substances content (LC) Sum of impurities ([3]; 25° C./60% RH, T0): ≤0.05%
Water content ([3]; 25° C./60% RH, T0): 0.1%
Appearance ([3]; 30° C./65% RH, 1 Y): A1
Assay of Drug substance (LC) ([3]; 30° C./65% RH, 1 Y): 99.5%
Identification ([3]; 30° C./65% RH, 1 Y): I3
Related substances content (LC) Sum of impurities ([3]; 30° C./65% RH, 1 Y): ≤0.05%
Water content ([3]; 30° C./65% RH, 1 Y): <0.1%
Appearance ([3]; 30° C./65% RH, 3 M): A1
Assay by potentiometry ([3]; 30° C./65% RH, 3 M): 99.8%
Assay of Drug substance (LC) ([3]; 30° C./65% RH, 3 M): 99.7%
Identification ([3]; 30° C./65% RH, 3 M): I3
Related substances content (LC) Sum of impurities ([3]; 30° C./65% RH, 3 M): ≤0.05%
Water content ([3]; 30° C./65% RH, 3 M): 0.1%
Appearance ([3]; 30° C./65% RH, 6 M): A1
Assay by potentiometry ([3]; 30° C./65% RH, 6 M): 100.4%
Assay of Drug substance (LC) ([3]; 30° C./65% RH, 6 M): 100.2%
Identification ([3]; 30° C./65% RH, 6 M): I3
Related substances content (LC) Sum of impurities ([3]; 30° C./65% RH, 6 M): ≤0.05%
Water content ([3]; 30° C./65% RH, 6 M): 0.1%
Appearance ([3]; 30° C./65% RH, 6 W): A1
Assay by potentiometry ([3]; 30° C./65% RH, 6 W): 99.8%
Assay of Drug substance (LC) ([3]; 30° C./65% RH, 6 W): 102.4%
Identification ([3]; 30° C./65% RH, 6 W): I3
Related substances content (LC) Sum of impurities ([3]; 30° C./65% RH, 6 W): ≤0.05%
Water content ([3]; 30° C./65% RH, 6 W): <0.1%
Appearance ([3]; 30° C./65% RH, 9 M): A1
Assay by potentiometry ([3]; 30° C./65% RH, 9 M): 99.6%
Assay of Drug substance (LC) ([3]; 30° C./65% RH, 9 M): 99.7%
Identification ([3]; 30° C./65% RH, 9 M): I3
Related substances content (LC) Sum of impurities ([3]; 30° C./65% RH, 9 M): ≤0.05%
Water content ([3]; 30° C./65% RH, 9 M): <0.1%
Appearance ([3]; 30° C./65% RH, T0): A1
Assay by potentiometry ([3]; 30° C./65% RH, T0): 99.9%
Assay of Drug substance (LC) ([3]; 30° C./65% RH, T0): 99.7%
Identification ([3]; 30° C./65% RH, T0): I1
Related substances content (LC) Sum of impurities ([3]; 30° C./65% RH, T0): ≤0.05%
Water content ([3]; 30° C./65% RH, T0): 0.1%
Appearance ([3]; 40° C./75% RH, 3 M): A1
Assay by potentiometry ([3]; 40° C./75% RH, 3 M): 99.8%
Assay of Drug substance (LC) ([3]; 40° C./75% RH, 3 M): 99.5%
Identification ([3]; 40° C./75% RH, 3 M): I3
Related substances content (LC) Sum of impurities ([3]; 40° C./75% RH, 3 M): ≤0.05%
Water content ([3]; 40° C./75% RH, 3 M): 0.1%
Appearance ([3]; 40° C./75% RH, 6 M): A1
Assay by potentiometry ([3]; 40° C./75% RH, 6 M): 100.5%
Assay of Drug substance (LC) ([3]; 40° C./75% RH, 6 M): 99.2%
Identification ([3]; 40° C./75% RH, 6 M): I3
Related substances content (LC) Sum of impurities ([3]; 40° C./75% RH, 6 M): ≤0.05%
Water content ([3]; 40° C./75% RH, 6 M): 0.1%
Appearance ([3]; 40° C./75% RH, 6 W): A1
Assay by potentiometry ([3]; 40° C./75% RH, 6 W): 99.8%
Assay of Drug substance (LC) ([3]; 40° C./75% RH, 6 W): 102.2%
Identification ([3]; 40° C./75% RH, 6 W): I3
Related substances content (LC) Sum of impurities ([3]; 40° C./75% RH, 6 W): ≤0.05%
Water content ([3]; 40° C./75% RH, 6 W): 0.1%
Appearance ([3]; 40° C./75% RH, T0): A1
Assay by potentiometry ([3]; 40° C./75% RH, T0): 99.9%
Assay of Drug substance (LC) ([3]; 40° C./75% RH, T0): 99.7%
Identification ([3]; 40° C./75% RH, T0): I1
Related substances content (LC) Sum of impurities ([3]; 40° C./75% RH, T0): ≤0.05%
Water content ([3]; 40° C./75% RH, T0): 0.1%
Appearance ([3]; −18° C., 1 Y): A1
Water content ([3]; −18° C., 1 Y): <0.1%
Appearance ([3]; −18° C., 2 Y): A1
Water content ([3]; −18° C., 2 Y): <0.1%
Appearance ([3]; −18° C., 3 M): A1
Water content ([3]; −18° C., 3 M): 0.1%
Appearance ([3]; −18° C., 6 M): A1
Water content ([3]; −18° C., 6 M): 0.1%
Appearance ([3]; −18° C., 6 W): A1
Assay by potentiometry ([3]; −18° C., 6 W): 99.9%
Identification ([3]; −18° C., 6 W): I3
Water content ([3]; −18° C., 6 W): 0.1%
Appearance ([3]; −18° C., 9 M): A1
Assay by potentiometry ([3]; −18° C., 9 M): 99.7%
Water content ([3]; −18° C., 9 M): <0.1%
Appearance ([3]; −18° C., 18 M): A1
Water content ([3]; −18° C., 18 M): 0.1%
Appearance ([3]; −18° C., T0): A1
Assay by potentiometry ([3]; −18° C., T0): 99.9%
Assay of Drug substance (LC) ([3]; −18° C., T0): 99.7%
Identification ([3]; −18° C., T0): I1
Related substances content (LC) Sum of impurities ([3]; −18° C., T0): ≤0.05%
Water content ([3]; −18° C., T0): 0.1%
Compound: COc1ccc2c(c1)CN(Cc1ccc(C(=O)O)cc1)CCS2.O=C(O)/C=C/C(=O)O [Form 2, 4-[(7-methoxy-2,3-dihydro-1,4-benzothiazepin-4(5H)yl)methyl]benzoic acid, hemifumarate]
Hygroscopicity [1]: non-hygroscopic; also recorded: not hygroscopic
